Test results published in PubChem BioAssay (NCI).
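48-hour exposure; five concentrations; linearly interpolated endpoints. GI50 marks 50% less growth. TGI denotes the concentration required for complete inhibition of growth.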

Tests used:
Test in all cases: inhibition of tumour cell growth, NCI panel, 48 h
EKVX NSCLC = tested on: EKVX NSCLC
M14 melanoma = tested on: M14 melanoma
OVCAR-4 ovarian = tested on: OVCAR-4 ovarian
OVCAR-5 ovarian = tested on: OVCAR-5 ovarian
HS 578T breast = tested on: HS 578T breast
KM12 colon = tested on: KM12 colon
OVCAR-3 ovarian = tested on: OVCAR-3 ovarian
SK-OV-3 ovarian = tested on: SK-OV-3 ovarian
NCI/ADR-RES ovarian = tested on: NCI/ADR-RES ovarian
NCI-H522 lung = tested on: NCI-H522 lung

| Compound | GI50 (EKVX NSCLC) | TGI (EKVX NSCLC) | GI50 (M14 melanoma) | TGI (M14 melanoma) | GI50 (OVCAR-4 ovarian) | TGI (OVCAR-4 ovarian) | GI50 (OVCAR-5 ovarian) | TGI (OVCAR-5 ovarian) | GI50 (HS 578T breast) | TGI (HS 578T breast) | GI50 (KM12 colon) | TGI (KM12 colon) | GI50 (OVCAR-3 ovarian) | TGI (OVCAR-3 ovarian) | GI50 (SK-OV-3 ovarian) | TGI (SK-OV-3 ovarian) | GI50 (NCI/ADR-RES ovarian) | TGI (NCI/ADR-RES ovarian) | GI50 (NCI-H522 lung) | TGI (NCI-H522 lung) |
| --- | --- | --- | --- | --- | --- | --- | --- | --- | --- | --- | --- | --- | --- | --- | --- | --- | --- | --- | --- | --- |
| CCCCCCCCCCCCC(O)c1ccco1 (stereo not given) | 20.8 µM | 38.8 µM | 21 µM | 37.9 µM | 29.7 µM | 78.3 µM | 16.1 µM | 30.3 µM | 16.2 µM | 35.7 µM | 21.7 µM | 48.1 µM | 17.9 µM | 34.4 µM | 22.5 µM | 44.7 µM | 16.4 µM | 30.8 µM | 20 µM | 41 µM |
| CCCCCCSSC(=S)N(CC)CC | 37.1 µM | > 100 µM | 19.2 µM | 47.6 µM | 15.1 µM | 28.8 µM | 20.5 µM | 35.9 µM | 28.3 µM | > 100 µM | 15.2 µM | 32.1 µM | 17.8 µM | 34.3 µM | 28.6 µM | 71.1 µM | 28.1 µM | 96.5 µM | 1.66 µM | 21.3 µM |
| CS(=O)(=O)OCCCNCCCOS(C)(=O)=O |  | 6030 µM |  | 5050 µM |  | 5360 µM |  | 6290 µM |  | 8170 µM |  | 5510 µM |  | 7600 µM |  | 7470 µM |  | 6040 µM |  | 5510 µM |
| CS(=O)(=O)Nc1cccc(-c2ccc3ncnc(Nc4ccc(F)c(Cl)c4)c3c2)c1 | 0.129 µM | 3.72 µM | 1.76 µM | 3.66 µM | 2.42 µM | > 30.6 µM | 1.89 µM | 6.66 µM | 1.85 µM | 5.55 µM | 2.5 µM | 8.3 µM | 1.6 µM | 6.27 µM | 0.233 µM | 1.38 µM | 2.03 µM | 7.54 µM | 1.04 µM | 3.13 µM |
| CN(C)CCCn1c(=O)c2ccccc2c2cnc3[nH]ccc3c21 | 2.27 µM | 8.43 µM | 1.83 µM | 4.44 µM | 1.92 µM | 8.63 µM | 2.27 µM | 14.9 µM | 2.53 µM | 11.2 µM | 1.63 µM | 9.78 µM | 2.4 µM | 6.35 µM | 1.97 µM | 7.11 µM | 1.25 µM | 6.24 µM | 1.82 µM | 5.03 µM |
| Cc1ccc([N+](=O)[O-])c2c(NCCNC(=O)c3cc(C(=O)NCCNc4ccnc5c(C)ccc([N+](=O)[O-])c45)n(C)n3)ccnc12 |  | > 100 µM |  | > 100 µM |  | > 73.3 µM |  | > 100 µM |  | > 100 µM |  | > 100 µM |  | > 100 µM |  | > 100 µM |  | > 100 µM |  | > 100 µM |
| O=[N+]([O-])c1ccc(Cl)c(CNc2ncnc3c2ncn3C2CCCCO2)c1 (stereo not given) |  | > 100 µM |  | > 100 µM |  | > 100 µM |  | > 100 µM |  | > 100 µM |  | > 100 µM |  | > 100 µM |  | > 100 µM |  | > 100 µM |  | > 100 µM |
| C#Cc1cccc(Nc2nc(Cl)nc3cc(NC(=O)CCl)ccc23)c1 | 2.12 µM | 6.27 µM | 0.764 µM | 2.64 µM | 0.847 µM | 2.69 µM | 1.41 µM | 4.45 µM | 1.43 µM | 9.17 µM | 1.13 µM | 4.22 µM | 0.47 µM | 0.984 µM | 2.88 µM | 6.1 µM | 1.28 µM | 13.6 µM | 0.465 µM | 0.897 µM |
| Nc1nc2c(C(=O)NCc3cccs3)nnn2c2cccc(Cl)c12 |  | > 100 µM |  | > 100 µM |  | > 100 µM |  | > 100 µM |  | > 100 µM |  | > 100 µM |  | > 100 µM |  | > 100 µM |  | > 100 µM |  | > 100 µM |
| CC/C(Cc1ccccc1)=C(\c1ccc(OCCN2CCCC2)cc1)c1ccc(OC(=O)NCc2ccccc2)cc1 | 2.37 µM | 7.39 µM | 1.73 µM | 3.31 µM | 1.86 µM | 3.85 µM | 1.93 µM | 4.65 µM | 1.97 µM | 4.32 µM | 1.92 µM | 3.81 µM | 1.86 µM | 3.56 µM | 11.6 µM | 24.6 µM | 2.66 µM | 10.3 µM | 1.99 µM | 4.14 µM |
| COc1ccc(-c2ccc(/C=N/n3c(COc4ccccc4Cl)nn(CN4CCOCC4)c3=S)o2)c([N+](=O)[O-])c1 | 54.9 µM | > 100 µM | 22.3 µM | 55.8 µM | 35.1 µM | > 100 µM | 55.3 µM | > 100 µM | 33.9 µM | 90.4 µM | 17.1 µM | 34.6 µM | 16.7 µM | 52.4 µM | 25.7 µM | > 100 µM | 21.3 µM | 49.2 µM | 38.9 µM | > 100 µM |
